The results in this text go back to a melting point compilation (Tetko et al.; mined from patent text by program, amines drawn as free bases though some values may be those of a salt).

Where only a bound is given, the exact number is not on record here.

By melting point is commonly meant the temperature, or range, at which the solid turns liquid. Regarding `Cc1cccc(CNC(=O)c2ccc3n2Cc2ccccc2N(C(=O)COc2ccc(Cl)cc2)C3)c1`, the melting point was 130 to 131 °C.
The figure for `CCOC(=O)c1ccccc1-n1nnnc1C` is 98 to 100 °C.
The figure for `O=C(O)CN1C(=O)C(=Cc2ccc(Cl)cc2)SC1=S` is 272 to 274 °C; for `CCN(CC)C(=O)c1cc(-c2ccc(OC)cc2)ccc1-c1ccccc1` it is 117 to 118 °C.
Consider `CP1(=O)c2ccccc2CN1c1ccc(Br)cc1` (stereo unspecified), for which the melting point was in the range of 135 to 136 °C.
The figure for `CNC1C(O)CC2C3CCC4CC(OC(C)=O)CCC4(C)C3CCC21C` (stereo unspecified) is 197 to 199 °C; for `O=C1NC(=O)C(SCCO)=C1SCCO` it is 46 to 50 °C; for `CCCCOc1ccc(NC(=O)c2ccccc2C(c2ccc(O)cc2)c2ccc(O)cc2)cc1` it is 110 to 112 °C.
The figure for `CC(=O)N1CCn2nc(Nc3cc(-c4ccc5c(c4)NC(=O)C5)cn4ccnc34)cc2C1` is 161 to 165 °C; for `COc1cc(C=O)c(Cl)c(Cl)c1OC` it is 120 to 123 °C; for `CCc1oc2ccccc2c1C(=O)c1c(Br)cc(Br)c(O)c1Br` it is 153 to 154 °C.
The same measure for `CC(=O)Nc1cc2c(cc1[N+](=O)[O-])OCO2`: 207 to 208 °C.
On to `Cn1c(=O)[nH]c2sccc2c1=O`, for which the melting point was in the range of 263 to 265 °C.
The figure for `Cc1cccc2c(=O)n(C)c(-c3ccc(OC4CCN(C5CCC5)CC4)cc3)nc12` is 152 to 154 °C; for `COc1ccc(NCCNC(=O)c2ccc(OCC=C(C)CCC=C(C)C)cc2)nc1` it is 70.8 to 71.7 °C.
`CC(=O)c1ccc2c(c1)CCC(=O)CO2` registered a melting point of 80 to 82 °C.
The figure for `CCCCCCOc1c(C=Cc2ccc(Br)cc2)ccc2c(OCCCCCC)c(C=Cc3ccc(Br)cc3)ccc12` is 170 to 172 °C; for `Cc1nc(-c2ccc(CN3C(=O)C4(COc5cc6c(cc54)CCO6)c4ccccc43)cc2)no1` (stereo unspecified) it is 185 to 186 °C; for `CCOC(=O)c1ncc2[nH]c3ccc(Cl)cc3c2c1C` it is 225 to 228 °C.
The figure for `COc1ccc(S(=O)(=O)C2(C(=O)O)CCN(Cc3ccc(-c4cccs4)cc3)CC2)cc1` is 235 °C; for `COc1ccc(CN2CCN(NC(=O)c3cc(Cl)c(N)cc3OC)CC2)cc1` it is 154 to 156 °C; for `O=C(CC1CC2CCC1C2)Nc1ccccc1C(c1ccc(O)cc1)c1ccc(O)cc1` (stereo unspecified) it is 125 to 127 °C.
The same measure for `COC(=O)c1ccc(-c2nc(-c3cc(C)sc3C)cs2)cc1`: 109 to 110 °C; for `CCCCCCCc1ccc(C(=O)c2cccc(C(=O)O)c2)cc1`: 124 to 126 °C; for `O=C(O)c1ncn(Cc2ccc(Cl)c(Cl)c2)c1C(=O)O`: 258 °C.
As for `CCOC(=O)C(C)(C)Oc1ccc(-c2ccc(CCNC(=O)c3cccc(C)c3)cc2)cc1`, the melting point was below 20 °C.
For the compound `O=C(NCCO)Nc1ccccc1`, the melting point is 120 to 122 °C.
The figure for `NC(=O)c1cccc2c1OC(CN1CC=C(c3c[nH]c4ccc(F)cc34)CC1)CO2` (stereo unspecified) is 195 to 197 °C; for `CC(=O)Nc1c(C(=O)c2cccc([N+](=O)[O-])c2)[nH]c2cc(Cl)ccc12` it is 246 to 250 °C.
The same measure for `CCOCc1nc2c(N)nc(C)c(C)c2n1N(C)C`: 170 to 171 °C; for `CCCCNC(=O)Oc1cccc(NC(=O)CC(=O)CCC)c1`: 123 °C.
For the compound `Nc1nc(N)c(C(=O)n2ccnc2)nc1Cl`, the melting point was 232 to 234 °C.
The same measure for `COc1cc(S(C)=O)ccc1-c1ccc(C#N)c(=O)[nH]1` (stereo unspecified): 239 to 241 °C; for `CCOC(=O)CNC(=O)CCc1cc(Cl)ccc1C(=O)CCCNC(C)=O`: 96 °C.
The same measure for `CS(=O)(=O)c1c(C(=O)O)ccc(Cl)c1Oc1ccccc1`: 231 to 235 °C; for `O=C(O)c1ccccc1C(=O)c1ccc(O)c(-c2ccccc2)c1`: 273 °C; for `CCCCc1sc(C(=O)O)c2c1-c1c(cnn1C)CC2`: 286 to 287 °C.
The figure for `COC(C)(OC)c1ccc(C2(O)CCC(C)(C)CC2)cc1` is 88 °C; for `O=c1cc(NCCN2CCN(c3cccc(Cl)c3)CC2)cn[nH]1` it is 187 to 189 °C; for `CC(C)CCOc1c(-c2ccc(S(N)(=O)=O)cc2)cnn(CC(F)(F)F)c1=O` it is 123 to 124 °C.
As for `CN1CC=C(C2=Cc3ccccc3Oc3ccc(Br)cc32)CC1`, the melting point fell in the range of 144 to 146 °C.
The same measure for `COc1cn(-c2ccccc2F)nc(C(=O)N(C)OC)c1=O`: 152 to 154 °C.
The same measure for `C(CSc1nnc(SCCCN2CCOCC2)s1)CN1CCOCC1`: 65.5 to 66 °C; for `c1ccc(-c2ccc(Nc3nccc(-c4ccc(-c5ccc(N(c6ccccc6)c6ccccc6)cc5)cc4)n3)cc2)cc1`: above 300 °C; for `Cc1cc(C(C)(C)C)c(O)c(S(=O)(=O)Nc2ccc(C#N)c(C(F)(F)F)c2)c1`: 159 to 162 °C.
`COC(=O)[C@H](C)NC(=O)c1cccc([N+](=O)[O-])c1N` displayed a melting point of 133 °C.
The same measure for `Cc1nc(N2CCC(N(C)C)CC2)c2nc(-c3ccccc3)cc-2[nH]1`: 262 to 263 °C; for `O=C(Nc1ccc(OCCCN2CCCC2=O)c2ccccc12)c1cc(F)cc(N2CCCCC2)c1`: 88 to 89 °C.
For the compound `COc1ccc2c3c(c(=O)oc2c1)CN(CCN1CC2CCCC(C2)C1)CC3`, the melting point was in the range of 102 to 103 °C.
The compound `O=C1c2ccccc2C(=O)N1Cc1noc(CCl)n1` registered a melting point of 96.5 to 98 °C.
Compound `O=C1OCCC12Oc1ccccc1C2=O` (stereo unspecified) displayed a melting point of 111 to 112 °C.
The same measure for `C[C@@H](O)c1nccc(N2CCC(=Cc3cccc(Cl)c3)CC2)n1`: 45 to 55 °C.
Turning to `CON=C(OC)C(=O)c1ncsc1C`, the melting point was 65 °C.
For the compound `Cc1c(-c2ccccc2)oc2c(CS(=O)CCCl)cccc2c1=O` (stereo unspecified), the melting point was 142 to 145 °C.
The same measure for `COc1ccc(C(CCC(C)=O)C(=O)c2ccc(OCc3ccccc3)cc2)cc1` (stereo unspecified): 93 to 94 °C.
The figure for `N#Cc1cc(N)ccc1Sc1ccccc1` is 73 to 75 °C; for `CCn1cc(C(=O)O)c(=O)c2cc(F)c(N3CCNC(Cn4cccc4)C3)cc21` (stereo unspecified) it is 185 to 188 °C; for `CN(C)C(=O)n1nc(N)c2ccc(Cl)cc21` it is 170 to 172 °C.
The same measure for `C=CCn1c(=O)c2[nH]c(/C=C/c3cc(OC)c(OC)c(OC)c3)nc2n(CC=C)c1=O`: 253 to 255 °C; for `COCOc1c(N=Nc2ccc(OC)cc2)cc(OC)cc1C(C)(C)C`: 102 to 103 °C; for `BrCCCOc1ccc(OCCCBr)cc1`: 78 to 80 °C.
`COc1ccc(C(=O)Nc2ccccc2)cc1Nc1ccccc1`: the melting point was in the range of 194 to 195 °C.
As to `OCc1c(Cl)c(Cl)c(Cl)c(CO)c1Cl`, the melting point fell in the range of 228 to 230 °C.
The same measure for `Cc1cc(C)c(N2CCCc3c2nn(C)c3N)c(Cl)c1`: 234 to 236 °C; for `CCSc1nc(NCc2ccccc2)c2ncn(C3OC(CO)C(O)C3O)c2n1` (stereo unspecified): 172 to 174 °C; for `CC(C)(C)NC(=O)c1ccccc1O`: 78 to 79.5 °C.
In the case of `Cc1noc(NS(=O)(=O)c2ccc(Cl)cc2Cl)c1Br`, the melting point was in the range of 138 to 141 °C.
The same measure for `CN(C)C(=O)c1ccc(N2CCN(Cc3cnc4c(c3)NC(=O)[C@@H]3CCCN43)CC2)cc1`: 99.2 °C.
The same measure for `Cc1cccc(C(=O)Nc2c(C(O)(C(F)(F)F)C(F)(F)F)ccc3ccccc23)c1`: 167 to 168 °C; for `CC1CCC(N(CC2CCC(CN(C(=O)Nc3ccc(N(C)C)cc3)C3CCC(C)CC3)CC2)C(=O)Nc2ccc(N(C)C)cc2)CC1` (stereo unspecified): 150 to 153 °C.
The same measure for `N#Cc1cccnc1N1CCN(CC(=O)Nc2ccc(F)c(Cl)c2)CC1`: 137 to 140 °C.
Turning to `COc1cccc(-c2n[nH]c(-c3ccccc3CO)n2)c1`, the melting point lay within 155 to 156 °C.
The same measure for `CC(C#Cc1ccc(C=Cc2ccccn2)o1)N(O)C(N)=O` (stereo unspecified): 175 °C.
The compound `O=C(NCc1ccccc1)c1ccc(OC2SCC(O)C(O)C2O)cn1` (stereo unspecified) gave a melting point of 89 to 91 °C.
Consider `CCOC(=O)c1cn(C)c2cnc3cc(F)c(F)cc3c2c1=O`, for which the melting point came to 272 °C.
On to `CCOC(=O)c1cn2c(C)csc2n1`, for which the melting point lay within 117 to 119 °C.
The same measure for `O=C(N[C@H]1CN2CCC1CC2)C(O)(c1ccccc1)C1CCCC1` (stereo partly specified): 69.8 to 73.3 °C.
The figure for `O=C(Cl)c1ccccc1Nc1cccc([N+](=O)[O-])c1` is 141 to 145 °C; for `C#CCCCOc1cc(C=O)ccc1OC` it is 73 to 74 °C; for `C#CCNC(=O)c1cccc(F)c1Nc1nc(Nc2ccc3c(c2)OCCCN3C(C)=O)ncc1Cl` it is 196 to 199 °C.
The same measure for `CCOC(=O)N1CCC(=C2c3cc(C)ccc3CCn3ccnc32)CC1`: 156 °C; for `CCOC(=O)c1cn(N2CCOCC2)c2ccc(CN3CCOCC3)cc2c1=O`: 209 to 211 °C; for `CC(=O)c1cc(-c2c(C)c(NC(=O)CC(C)(C)C)c(C)c3c2OCC3c2ccc(C(C)C)cc2)cs1` (stereo unspecified): 133 to 134 °C.
For `CCCCC(CNC(=O)Nc1c(C(C)C)cccc1C(C)C)c1ccc2c(c1)OCO2` (stereo unspecified), the melting point is 153 to 155 °C.
The same measure for `Cc1cc2c(s1)Nc1ccccc1NC2=S`: 259 to 260 °C; for `CC(N)(C(N)=O)C(F)F` (stereo unspecified): 77 to 80 °C.
The same measure for `Cc1cc2c(cc1C(=O)C(C)CC(=O)O)NC(=O)CO2` (stereo unspecified): 170 to 172 °C; for `N#CNc1nnc(-c2ccccc2Nc2cccc(C(F)(F)F)c2)o1`: above 230 °C; for `CC(C)n1cnc2c(NCc3cccnc3)nc(F)nc21`: 131 to 133 °C.
The same measure for `CCCOc1ccc(S(=O)(=O)NCCc2c[nH]cn2)cc1-c1nc2cc(Cl)c([N+](=O)[O-])cc2c(=O)[nH]1`: 140 to 144 °C.
`COc1ccc(NN=C(Sc2ccccc2C)C(C)=O)cc1`: the melting point was 112 to 114 °C.
